Test results from publication PMC9692523, “Exposure to (Poly)phenol Metabolites after a Fruit and Vegetable Supplement Intake: A Double-Blind, Cross-Over, Randomized Trial” (Nutrients, 2022).

Tests used:
[1] = Urinary excretion of phenolic metabolites over 48 h after one 450 mg capsule of the supplement (UHPLC-ESI-MS/MS); assay type: in vivo, human; conditions: urine, n = 10, mean ± SEM; for Urinary excretion 0 (h): baseline (day before)
Procedure: (§1) This study was designed as a 3-week randomized, double-blind, cross-over clinical trial. Eligible participants were randomized using simple block randomization of 1:1. Once enrolled, subjects received either one 450 mg capsule of the test supplement or one 450 mg capsule of placebo on the first day of the study (Phase I: D1). After three days of sampling, volunteers started a wash-out period of 1 week and were then enrolled for the second test Phase with ingestion of the opposite supplement (Phase II: D1) (Figure 1). The placebo product was 100% maltodextrin, which was (poly)phenol-free.
Urine samples were collected the day before (baseline) and during the 48 h period following the supplementation (T0-T3, T3-T6, T6-T10, T10-T14, T14-T24, T24-T32 and T32-T48) (Figure 2). Urine volumes at each collection period were registered, and samples were aliquoted and stored at −80 °C until further processing.
Then, urine samples were prepared as previously reported by Brindani and colleagues. Briefly, urine samples were defrosted, vortexed, diluted in 0.1% formic acid in water (1:4, v/v) and centrifuged at 12,000 rpm for 5 min. Finally, urine samples were filtered (0.45 µm nylon filter) prior to UHPLC-ESI-MS/MS analysis.
(§2) Plasma and urine samples were analyzed by a UHPLC DIONEX Ultimate 3000 equipped with a triple quadrupole TSQ Vantage (Thermo Fisher Scientific Inc) fitted with a heated ESI (H-ESI) (Thermo Fisher Scientific Inc) probe, as previously reported. Separations were carried out by means of a Kinetex EVO C18 (100 × 2.1 mm) column, 2.6 µm particle size (Phenomenex, Torrance, CA, USA), installed with a pre-column (Phenomenex). Mobile phase A was 0.2% formic acid in water, and mobile phase B was acetonitrile containing 0.2% formic acid. The gradient started with 5% B, and isocratic conditions were maintained for 0.5 min, reaching 95% B after 6.5 min, followed by 1 min at 95%. The starting gradient was then immediately re-established and maintained for 5 min to re-equilibrate the column. The flow rate was 0.4 mL/min, the injection volume was 5 µL and the column temperature was set at 40 °C.
(§3) The applied MS method consisted of the selective determination of each target precursor ion by the acquisition of characteristic product ion in selective reaction monitoring (SRM) mode (Supplemental Table S2). For all the analyses, the spray voltage was set at 3 kV, the vaporizer temperature at 300 °C and the capillary temperature operated at 270 °C. The sheath gas flow was 50 units, and auxiliary gas pressure was set to 10 units. Ultra-high purity argon gas was used for collision-induced dissociation (CID). The S-lens values were defined for each compound based on infusion parameter optimization. Conversely, for those compounds not available for infusion, the S-lens values were set using the values obtained for the chemically closest available standards. Quantification was performed with calibration curves of standards when available or using the most structurally similar compound. Data processing was performed using Xcalibur software (Thermo Scientific Inc., San Jose, CA, USA).
All data were expressed as mean values ± standard deviation (SD) and mean values ± standard error to the mean (SEM) for metabolites in blood and urine samples. PKSolver add-on program in Microsoft Excel was used to determine pharmacokinetic parameters of blood phenolic metabolites, including time to reach the maximum plasma concentration (Tmax, h), maximum plasma concentration (Cmax, nmol/L), area under the curve (AUC0-24, nmol/L·h), and time of presence of metabolites in circulation (Tpres, h). Tpres was calculated by taking the time interval between the first appearance and the last appearance of the considered metabolite. Coefficient of variation (CV) was evaluated for each metabolite and multivariate principal component analysis (PCA) was applied to explore the inter-individual variation in the urinary metabolites among the participants. […]

[2] = Plasma pharmacokinetics of phenolic metabolites after one 450 mg capsule of the supplement (UHPLC-ESI-MS/MS); assay type: in vivo, human; conditions: for Cmax / Tmax / Tpres (time of presence of metabolites in circulation): n = 10, mean ± SEM; for Tpres (time of presence of metabolites in circulation): interval between first and last appearance; for AUC0-24: supplemented volunteers (n = 10), 450 mg capsule, mean ± SEM
Procedure: as §1
On the day of the test (D1), volunteers visited the Research Center after an overnight fast. Blood was collected at T0 to determine baseline levels of plasma phenolic metabolites. Then, volunteers were invited to take the 450 mg capsule of the supplement or the placebo with 250 mL of still water (Figure 2). Additional blood samples were then collected at 1 h (D1, T1), 2 h (D1, T2), 3 h (D1, T3), 4 h (D1, T4), 5 h (D1, T5), 6 h (D1, T6), 8 h (D1, T8), 10 h (D1, T10) and 24 h (D2, T24) after capsule intake. Blood was taken from the basilica vein and centrifuged at 3000 rpm for 10 min at 4 °C. Plasma was immediately extracted and frozen at −80 °C for further analysis.
Plasma samples were then extracted using a solid phase extraction (SPE) method, as previously reported by Castello and colleagues. Briefly, 350 µL of plasma samples was diluted (1:1) with phosphoric acid 4% (v/v). After plate activation, 600 µL of the diluted plasma samples was loaded on a 96 well µ-SPE HLB (Oasis® HLB µElution Plate 30 µm, Waters, Milford, Massachusetts, MA, USA). Samples were washed with 200 µL of water and 200 µL of 0.2% (v/v) acetic acid. Finally, samples were eluted with 60 µL of methanol for UHPLC-ESI-MS/MS analysis.
as §2, §3
All data were expressed as mean values ± standard deviation (SD) and mean values ± standard error to the mean (SEM) for metabolites in blood and urine samples. […]

O=C1CCC(Cc2cccc(OS(=O)(=O)O)c2)O1 (stereo not drawn) [compound 23]
Urinary excretion 0 (h) [1]: 41.07 ± 30.35 µg | Urinary excretion 0–3 (h) [1]: 4.29 ± 2.19 µg | Urinary excretion 3–6 (h) [1]: 52.98 ± 22.54 µg | Urinary excretion 6–10 (h) [1]: 175.24 ± 98.80 µg | Urinary excretion 10–14 (h) [1]: 76.01 ± 39.48 µg | Urinary excretion 14–24 (h) [1]: 345.14 ± 198.47 µg | Urinary excretion 24–32 (h) [1]: 100.92 ± 46.88 µg | Urinary excretion 32–48 (h) [1]: 34.61 ± 16.03 µg | Urinary excretion Total (0–48 h) [1]: 830.26 ± 275.43 µg | Cmax [2]: 2.15 ± 0.48 nM | Tmax [2]: 8.22 ± 2.13 h | Tpres (time of presence of metabolites in circulation) [2]: 9.33 ± 2.45 h | AUC0-24 [2]: 0.01011 ± 0.00389 µM·h

COc1cc(C(=O)O)cc(OC)c1O.COc1cc(C(=O)O)cc(OC)c1O [compound 39]
Urinary excretion 0 (h) [1]: 0.71 ± 0.46 µg | Urinary excretion 0–3 (h) [1]: 8.71 ± 8.71 µg | Urinary excretion 3–6 (h) [1]: 3.89 ± 3.81 µg | Urinary excretion 6–10 (h) [1]: 3.57 ± 2.82 µg | Urinary excretion 10–14 (h) [1]: 1.42 ± 1.38 µg | Urinary excretion 14–24 (h) [1]: 3.63 ± 2.95 µg | Urinary excretion 24–32 (h) [1]: 3.33 ± 2.94 µg | Urinary excretion 32–48 (h) [1]: 8.73 ± 8.35 µg | Urinary excretion Total (0–48 h) [1]: 33.92 ± 30.72 µg

O=C(O)c1ccc(O)c(OC2OC(C(=O)O)C(O)C(O)C2O)c1 (stereo not drawn) [compound 35]
Urinary excretion 0 (h) [1]: 1.13 ± 1.13 µg | Urinary excretion 0–3 (h) [1]: 14.20 ± 4.88 µg | Urinary excretion 3–6 (h) [1]: 24.68 ± 5.82 µg | Urinary excretion 6–10 (h) [1]: 12.53 ± 4.10 µg | Urinary excretion 10–14 (h) [1]: 3.10 ± 1.12 µg | Urinary excretion 14–24 (h) [1]: 4.51 ± 1.34 µg | Urinary excretion Total (0–48 h) [1]: 60.16 ± 9.86 µg

O=C(O)CNC(=O)c1ccc(O)cc1 [compound 47]
Cmax [2]: 816 ± 269 nM | Tmax [2]: 6.50 ± 1.28 h | Tpres (time of presence of metabolites in circulation) [2]: 21.55 ± 0.74 h | AUC0-24 [2]: 5.71944 ± 1.32787 µM·h

O=C(O)CCc1cccc(O)c1.O=C(O)CCc1cccc(O)c1 [compound 40]
Urinary excretion 0 (h) [1]: 96.20 ± 96.20 µg | Urinary excretion 0–3 (h) [1]: 85.67 ± 85.67 µg | Urinary excretion 10–14 (h) [1]: 287.94 ± 287.94 µg | Urinary excretion 14–24 (h) [1]: 262.06 ± 138.26 µg | Urinary excretion 32–48 (h) [1]: 676.70 ± 383.40 µg | Urinary excretion Total (0–48 h) [1]: 1408.57 ± 544.97 µg | Cmax [2]: 443 ± 99.3 nM | Tmax [2]: 7.13 ± 0.77 h | Tpres (time of presence of metabolites in circulation) [2]: 7.50 ± 2.38 h | AUC0-24 [2]: 1.55429 ± 0.64433 µM·h

O=C(O)CCc1ccc(O)c(OS(=O)(=O)O)c1 [compound 41]
Urinary excretion 0 (h) [1]: 27.49 ± 27.49 µg | Urinary excretion 0–3 (h) [1]: 101.08 ± 52.47 µg | Urinary excretion 3–6 (h) [1]: 103.59 ± 54.34 µg | Urinary excretion 6–10 (h) [1]: 41.08 ± 16.51 µg | Urinary excretion 10–14 (h) [1]: 56.67 ± 24.78 µg | Urinary excretion 14–24 (h) [1]: 389.70 ± 95.00 µg | Urinary excretion 24–32 (h) [1]: 208.69 ± 73.47 µg | Urinary excretion 32–48 (h) [1]: 289.45 ± 118.16 µg | Urinary excretion Total (0–48 h) [1]: 1217.76 ± 256.95 µg | Cmax [2]: 18.2 ± 11.3 nM | Tmax [2]: 4.56 ± 1.13 h | Tpres (time of presence of metabolites in circulation) [2]: 9.06 ± 2.56 h | AUC0-24 [2]: 0.02741 ± 0.01121 µM·h

O=C1CCC(Cc2cc(O)cc(OC3OC(C(=O)O)C(O)C(O)C3O)c2)O1 (stereo not drawn) [compound 10]
Urinary excretion 0 (h) [1]: 5.34 ± 5.34 µg | Urinary excretion 0–3 (h) [1]: 0.00 ± 0.00 µg | Urinary excretion 3–6 (h) [1]: 101.70 ± 51.36 µg | Urinary excretion 6–10 (h) [1]: 316.86 ± 132.04 µg | Urinary excretion 10–14 (h) [1]: 199.53 ± 88.98 µg | Urinary excretion 14–24 (h) [1]: 624.93 ± 108.36 µg | Urinary excretion 24–32 (h) [1]: 281.58 ± 60.75 µg | Urinary excretion 32–48 (h) [1]: 65.29 ± 25.62 µg | Urinary excretion Total (0–48 h) [1]: 1595.23 ± 260.71 µg | Cmax [2]: 15 ± 5.61 nM | Tmax [2]: 12.78 ± 2.85 h | Tpres (time of presence of metabolites in circulation) [2]: 14.44 ± 2.42 h | AUC0-24 [2]: 0.12555 ± 0.04768 µM·h

O=C(O)[C@H]1O[C@@H](Oc2ccc3c(c2)oc(=O)c2ccc(O)cc23)[C@H](O)[C@@H](O)[C@@H]1O [compound 43]
Urinary excretion 6–10 (h) [1]: 6.91 ± 6.55 µg | Urinary excretion 10–14 (h) [1]: 5.49 ± 5.21 µg | Urinary excretion 14–24 (h) [1]: 36.41 ± 34.54 µg | Urinary excretion 24–32 (h) [1]: 14.38 ± 9.83 µg | Urinary excretion 32–48 (h) [1]: 5.33 ± 5.05 µg | Urinary excretion Total (0–48 h) [1]: 68.53 ± 55.19 µg

O=C(O)c1ccc(O)c(OS(=O)(=O)O)c1 [compound 45]
Time of first plasma concentration (absorption) peak ([2]; after supplement intake): 1.38 ± 0.18 h | Cmax [2]: 43.6 ± 7.34 nM | Tmax [2]: 2.10 ± 0.46 h | Tpres (time of presence of metabolites in circulation) [2]: 13.45 ± 2.80 h | AUC0-24 [2]: 0.19606 ± 0.03272 µM·h

O=C(O)[C@H]1O[C@@H](Oc2ccc3c(c2)oc(=O)c2ccccc23)[C@H](O)[C@@H](O)[C@@H]1O [compound 44]
Urinary excretion 6–10 (h) [1]: 5.31 ± 5.04 µg | Urinary excretion 10–14 (h) [1]: 39.56 ± 37.53 µg | Urinary excretion 14–24 (h) [1]: 144.45 ± 90.90 µg | Urinary excretion 24–32 (h) [1]: 74.85 ± 48.79 µg | Urinary excretion 32–48 (h) [1]: 30.99 ± 29.40 µg | Urinary excretion Total (0–48 h) [1]: 295.17 ± 185.26 µg

COc1cc(CCC(=O)O)ccc1OS(=O)(=O)O [compound 46]
Cmax [2]: 169 ± 156 nM | Tmax [2]: 6.43 ± 2.97 h | Tpres (time of presence of metabolites in circulation) [2]: 7.14 ± 3.61 h | AUC0-24 [2]: 0.55828 ± 0.53121 µM·h
